Test system: 361931-004-R-J1-PDC multicell spheroid viability
Assay: Anticancer human tumor 361931-004-R-J1-PDC patient-derived colon adenocarcinoma cell line growth inhibition [PI3K]
Details: for IC50: curve of first compound; for viability, T/C: stronger effect = lower value
Outline: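 Stroma-containing spheroids: tumor line, pooled-donor HUVEC, hMSC. Treatments: targeted agents with PI3K inhibitors. Dosing: clinically relevant, half-log spacing, 10 microM ceiling without known Cmax. Read-out: cell viability.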

[1] = second compound 0.0316 µM, first compound 0.0316 µM
[2] = second compound 0.0316 µM, first compound 0.1 µM
[3] = second compound 0.1 µM, first compound 0.0316 µM
[4] = second compound 0.1 µM, first compound 0.1 µM
[5] = second compound 0.316 µM, first compound 0.0316 µM
[6] = second compound 0.316 µM, first compound 0.1 µM
[7] = second compound 1 µM, first compound 0.0316 µM
[8] = second compound 1 µM, first compound 0.1 µM
[9] = second compound 3.16 µM, first compound 0.0316 µM
[10] = second compound 3.16 µM, first compound 0.1 µM
[11] = second compound 10 µM, first compound 0.0316 µM
[12] = second compound 10 µM, first compound 0.1 µM
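Note: spheroids exposed to agents for seven days before readout.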

For `CC(C)n1nc(-c2ccc3oc(N)nc3c2)c2c(N)ncnc21` + Cc1nc(NC(=O)N2CCCC2C(N)=O)sc1-c1ccnc(C(C)(C)C(F)(F)F)c1, the IC50 (second compound 0.0316 µM) was greater than 100 nM, the IC50 (second compound 0.1 µM) was greater than 100 nM and the IC50 (second compound 0.316 µM) was 99.1 nM. For the same compound, the IC50 (second compound 1 µM) was 70.4 nM, the IC50 (second compound 3.16 µM) was 54.1 nM and the IC50 (second compound 10 µM) was 21.6 nM. It also gave a viability, T/C (second compound 0.0316 µM, first compound 0.000316 µM) of 102%, a viability, T/C (second compound 0.0316 µM, first compound 0.001 µM) of 101% and a viability, T/C (second compound 0.0316 µM, first compound 0.00316 µM) of 97.8%. It also gave a viability, T/C (second compound 0.0316 µM, first compound 0.01 µM) of 97.8%, a viability, T/C [1] of 101% and a viability, T/C [2] of 64.5%. The viability, T/C (second compound 0.1 µM, first compound 0.000316 µM) was 108%, the viability, T/C (second compound 0.1 µM, first compound 0.001 µM) was 111% and the viability, T/C (second compound 0.1 µM, first compound 0.00316 µM) was 99.3%. The viability, T/C (second compound 0.1 µM, first compound 0.01 µM) was 101%, the viability, T/C [3] was 90.2% and the viability, T/C [4] was 58.1%. The viability, T/C (second compound 0.316 µM, first compound 0.000316 µM) was 106%, the viability, T/C (second compound 0.316 µM, first compound 0.001 µM) was 93.8% and the viability, T/C (second compound 0.316 µM, first compound 0.00316 µM) was 96.8%. For the same compound, the viability, T/C (second compound 0.316 µM, first compound 0.01 µM) was 93.7%, the viability, T/C [5] was 88.9% and the viability, T/C [6] was 49%. The viability, T/C (second compound 1 µM, first compound 0.000316 µM) was 94.2%, the viability, T/C (second compound 1 µM, first compound 0.001 µM) was 89% and the viability, T/C (second compound 1 µM, first compound 0.00316 µM) was 82.3%. The viability, T/C (second compound 1 µM, first compound 0.01 µM) was 91.3%, the viability, T/C [7] was 72.9% and the viability, T/C [8] was 39.9%. For the same compound, the viability, T/C (second compound 3.16 µM, first compound 0.000316 µM) was 83.9%, the viability, T/C (second compound 3.16 µM, first compound 0.001 µM) was 85.2% and the viability, T/C (second compound 3.16 µM, first compound 0.00316 µM) was 83.8%. The viability, T/C (second compound 3.16 µM, first compound 0.01 µM) was 68.9%, the viability, T/C [9] was 72.3% and the viability, T/C [10] was 29.6%. For the same compound, the viability, T/C (second compound 10 µM, first compound 0.000316 µM) was 65%, the viability, T/C (second compound 10 µM, first compound 0.001 µM) was 62.4% and the viability, T/C (second compound 10 µM, first compound 0.00316 µM) was 64%. It also gave a viability, T/C (second compound 10 µM, first compound 0.01 µM) of 60%, a viability, T/C [11] of 45% and a viability, T/C [12] of 19.2%.

`CC1(C)CCC(CN2CCN(c3ccc(C(=O)NS(=O)(=O)c4ccc(NCC5CCOCC5)c([N+](=O)[O-])c4)c(Oc4cnc5[nH]ccc5c4)c3)CC2)=C(c2ccc(Cl)cc2)C1` + Cc1nc(NC(=O)N2CCCC2C(N)=O)sc1-c1ccnc(C(C)(C)C(F)(F)F)c1 gave an IC50 (second compound 0.0316 µM) of 4140 nM, an IC50 (second compound 0.1 µM) of 4300 nM and an IC50 (second compound 0.316 µM) of 4190 nM. It also gave an IC50 (second compound 1 µM) of 3890 nM, an IC50 (second compound 3.16 µM) of 2710 nM and an IC50 (second compound 10 µM) of 1520 nM. It also gave a viability, T/C [1] of 108%, a viability, T/C [2] of 100% and a viability, T/C (second compound 0.0316 µM, first compound 0.316 µM) of 111%. It also gave a viability, T/C (second compound 0.0316 µM, first compound 1 µM) of 99.7%, a viability, T/C (second compound 0.0316 µM, first compound 3.16 µM) of 64.9% and a viability, T/C (second compound 0.0316 µM, first compound 10 µM) of 1.71%. It also gave a viability, T/C [3] of 106%, a viability, T/C [4] of 100% and a viability, T/C (second compound 0.1 µM, first compound 0.316 µM) of 108%. For the same compound, the viability, T/C (second compound 0.1 µM, first compound 1 µM) was 99.1%, the viability, T/C (second compound 0.1 µM, first compound 3.16 µM) was 67.8% and the viability, T/C (second compound 0.1 µM, first compound 10 µM) was 1.27%. The viability, T/C [5] was 104%, the viability, T/C [6] was 107% and the viability, T/C (second compound 0.316 µM, first compound 0.316 µM) was 96%. The viability, T/C (second compound 0.316 µM, first compound 1 µM) was 93%, the viability, T/C (second compound 0.316 µM, first compound 3.16 µM) was 65.6% and the viability, T/C (second compound 0.316 µM, first compound 10 µM) was 1.32%. It also gave a viability, T/C [7] of 87.1%, a viability, T/C [8] of 102% and a viability, T/C (second compound 1 µM, first compound 0.316 µM) of 84.8%. For the same compound, the viability, T/C (second compound 1 µM, first compound 1 µM) was 83.1%, the viability, T/C (second compound 1 µM, first compound 3.16 µM) was 61.2% and the viability, T/C (second compound 1 µM, first compound 10 µM) was 0.97%. It also gave a viability, T/C [9] of 85.7%, a viability, T/C [10] of 77% and a viability, T/C (second compound 3.16 µM, first compound 0.316 µM) of 78.2%. It also gave a viability, T/C (second compound 3.16 µM, first compound 1 µM) of 80%, a viability, T/C (second compound 3.16 µM, first compound 3.16 µM) of 45.4% and a viability, T/C (second compound 3.16 µM, first compound 10 µM) of 1.07%. For the same compound, the viability, T/C [11] was 65.1%, the viability, T/C [12] was 67.7% and the viability, T/C (second compound 10 µM, first compound 0.316 µM) was 60.3%. It also gave a viability, T/C (second compound 10 µM, first compound 1 µM) of 62.2%, a viability, T/C (second compound 10 µM, first compound 3.16 µM) of 29% and a viability, T/C (second compound 10 µM, first compound 10 µM) of 1.43%.

— PubChem BioAssay AID1963979 (Molecular Pharmacology Branch, DTP, NCI, 2024)
